Reference: patent publication US20240092756A1, “METHODS AND COMPOSITION FOR KRAS MODIFICATIONS” (2692372 ONTARIO, INC., priority 2020, published 2024)

Experiments:
[1] = system: phospho-ERK1/2 in MIA PaCa-2 cells (express KRAS G12C); experiment: ERK1/2 phosphorylation in MIA PaCa-2 cells; assay type: cell-based, human; set-up: key: X: KRAS G12C bound and modulated in cells
Method: MIA PaCa-2 cells were cultured in Dulbecco's Modified Eagle's Medium (Wisent) supplemented with 10% FBS, 2.5% horse serum, and 1% penicillin/streptomycin. Cells were seeded in 6-well plates at 500,000 cells/well and incubated at 37° C., 5% CO2 for 16 hours. Cells were treated with the indicated concentrations of compound or DMSO alone and incubated at 37° C., 5% CO2 for 6 or 24 hours. Conditioned media was discarded, and adherent cells were washed with PBS before they were scraped. Cell suspensions were centrifugated at 2,000 RPM for 5 minutes at 4° C. and supernatants were discarded. Cell pellets were resuspended with 1×RIPA buffer (Millipore) and incubated on ice for 15 minutes. Protein lysates were extracted by centrifugating at 20,000 RPM for 20 minutes at 4° C. Proteins were separated and total KRas protein levels were quantified by Simple Western Immunoassay (ProteinSimple) using the 2-40 kDa Separation Module for Jess according to the manufacturer's protocol, using a protein concentration of 0.5 μg/μl and antibodies targeting KRas (clone #4F3, Sigma) and GAPDH (clone #14C10, Cell Signaling) diluted to 1:10 and 1:1600, respectively, where the latter was used as a loading control. A 3:1 ratio of rabbit to mouse HRP-conjugated secondary antibodies was used for detection. KRas protein levels were quantified relative to GAPDH loading levels and subsequently normalized to the DMSO control. Phosphorylated ERK1/2 levels were quantified by Simple Western Immunoassay (ProteinSimple) using the Protein Normalization Assay Module for Jess according to the manufacturer's protocol using a protein concentration of 0.5 μg/μl and an antibody targeting phosphor-ERK1/2 (clone #D13.14.4E, Cell Signalling) diluted to 1:10. Phosphorylated ERK1/2 levels were normalized to the Jess Protein Normalization Reagent loading control and subsequently to the DMSO control.
MIA PaCa-2 cells were cultured in Dulbecco's Modified Eagle's Medium (Wisent) supplemented with 10% FBS, 2.5% horse serum, and 1% penicillin/streptomycin. Cells were seeded in 96-well plates at a density of 25,000 cells/well and incubated at 37° C., 5% CO2 for 24 hours. The next day, cells were starved in cell culture media containing 1% FBS only at 37° C., 5% CO2 for 16 hours. Following starvation, serially-diluted compounds or DMSO alone were added to cells and incubated at 37° C., 5% CO2 for 1 or 3 hours. Prior to cell lysis, 25 ng/ml human epidermal growth factor (hEGF) (Sigma) was added to the cells and incubated at 37° C., 5% CO2 for 10 minutes. Conditioned media was discarded, and adherent cells lysed and basal ERK1/2 phosphorylation levels were measured using the Phospho-ERK (Thr202/Tyr204) Cellular HTRF kit (Perkin Elmer) according to the manufacturer's protocol. The fluorescent signal of the acceptor antibody at a wavelength of 665 nm was normalized to that of the donor antibody at 620 nm. HTRF ratios were plotted and relative IC50 values were obtained using Prism (GraphPad).

KRAS G12C = KRAS G12C (Homo sapiens, UniProt P01116, G12C); experiment: SOS1-catalyzed KRAS coupled nucleotide exchange assay (Alpha technology); assay type: biochemical; set-up: His; key: A: KRAS G12C bound and modulated; conditions: inhibition of SOS1 mediated KRAS nucleotide exchange
Method: Method I: The inhibition of the SOS1-catalyzed nucleotide exchange activity of KRAS (e.g., KRAS G12C/C118A) was measured using Alpha (Amplified Luminescent Proximity Homogeneous Assay) technology. 20 nM GDP-bound human KRAS (G12C/C118A) protein was incubated with two-fold serially-diluted test compound or DMSO for 5 minutes at ambient temperature in reaction buffer (25 mM HEPES, pH 7.4; 10 mM MgCl2; 0.01% Triton X-100). For all subsequent steps, DTT was added to the reaction buffer at a final concentration of 1 mM. Next, GTP and SOS-1 were added in DTT-reaction buffer at final concentrations of 1.25 mM or 500 nM, respectively, and incubated at RT for 30 minutes. Finally, c-RAF RBD (50 nM final), Alpha glutathione donor beads (PerkinElmer; 20 μg/mL final), and AlphaLISAnickel chelate acceptor beads (PerkinElmer; 20 μg/mL final), all diluted in DTT-reaction buffer, were added. The reaction mixture was incubated at RT for 5 min, and then the plates were read on an EnVision® Multilabel Reader using the AlphaScreen protocol. Luminescence signal was measured at 570 nm following a 180 ms excitation at 680 nm. Signal intensity corresponded with the association of c-RAF RBD with GTP-bound KRAS G12C/C118A and was normalized to DMSO control.
Method II: Inhibition of the SOS1-catalyzed nucleotide exchange activity of KRAS^G12C was measured using Alpha technology (PerkinElmer). 50 nM GDP-bound human KRAS^G12C protein was incubated with serially-diluted compound or DMSO for 2 hrs at RT in RBD-RAS binding buffer (BPSBioscience). 1 mM GTP and 500 nM SOS-1 were added to the reaction mixture and incubated at RT for 30 min. GST-tagged RBD-cRAF was then added to the reaction mixture at a final concentration of 2.5 nM and incubated at RT for 30 min. Finally, Alpha Glutathione acceptor beads and Nickel chelate donor beads (PerkinElmer) were diluted to 1:500 and 1:250, respectively, and added to the reaction mixture. The final reaction was incubated at RT for 30 min. Plates were read on a TECAN SPARK® Multiplate Reader. The luminescence signal was measured at 615 nm following excitation at 680 nm. Signal intensity was normalized to DMSO control.

[2] = biological target: KRAS G12C Lite (SEQ ID NO:3) (Homo sapiens, UniProt P01116, C118S/C51S/C80S/G12C/S136P/S39C); experiment: Intact mass analysis (LC-MS) of covalent modification, KRAS G12C Lite; assay type: binding; set-up: key to KRAS Lite Modification: a: KRAS Lite modified; conditions: intact mass spectrometry; covalent modification of KRAS G12C Lite
Method: The covalent modification of the proteins with the compounds were evaluated using intact mass analysis by liquid chromatography-mass spectrometry instrument (LC-MS/MS).
The reaction solution (20 μL) was prepared in 96-well plate and contained the protein (2 μM), the compound (100 μM), HEPES buffer (20 mM, pH 8), 2% DMSO, 2% glycerol, and 150 mM NaCl. The reaction was allowed to proceed for 24 h at 25° C. The reaction solution (1 μL) was injected into the LC/MS/MS without any further sample preparation.
The LC-MS/MS instrument comprises of a Waters G2-XS quadrupole-time of flight (QTof) mass spectrometer and a Waters Acuity I-class Ultra-High Performance Liquid Chromatography (UPLC) system. The I-class UPLC system includes a binary solvent manager (BSM), and an Acquity sample manager (SM). The mobile phase consisted of: A) 0.1% (v/v) formic acid in MilliQ water; B) 0.1% (v/v) formic acid acetonitrile. Gradients were run over 5 min and proceeded as follows: A:B, 85:15, 0.0-0.7 min, 85:15→15:85, 0.7-1.5 min, 10:90, 1.5-4 min, 10:90→85:15, 4-4.5 min, 85:15, 4.5-5 min. The analytical column was a Waters BEH C4 column 1.7 μm (50×1 mm) column with pore sizes of 300 Å. The TOF MS data was collected in positive ion mode (m/z of 400-2000 Da) using MassLynx software (Waters).
The spectral deconvolution was performed using UNIFI software (Waters). The added mass of the protein upon covalent modification to cysteine residues were specified. Multiple modification of up to 8 cysteine was allowed. All the adducts with signal intensities of <2% of the base peak were ignored. The % modification was calculated as the adduct signal intensity over the total intensities of the protein peaks and the adducts.

Row | SMILES | pERK - MIA PaCa-2 - (6 hours, 5 uM) [1] | KRAS-SOS1 Nucleotide Exchange (KRAS G12C) | KRAS Lite Modification [2]
1 | O=S(=O)(NC1CN(c2ncnc3c2CCN(c2cccc4ccccc24)C3)C1)c1c(F)c(F)c(F)c(F)c1C(F)(F)F [Compound 35A, 2,3,4,5-tetrafluoro-N-(1-(7-(naphthalen-1-yl)-5,6,7,8-tetrahydropyrido[3,4-d]pyrimidin-4-yl)azetidin-3-yl)-6-(trifluoromethyl)benzenesulfonamide] | X | A | 
2 | O=S(=O)(c1c(F)c(F)c(F)c(F)c1C(F)(F)F)N1CCN(c2ncnc3c2CCN(c2cc(O)cc4ccccc24)C3)CC1 [Compound 41A, 4-(4-(4-((2,3,4,5-tetrafluoro-6-(trifluoromethyl)phenyl)sulfonyl)piperazin-1-yl)-5,8-dihydropyrido[3,4-d]pyrimidin-7(6H)-yl)naphthalen-2-ol] | X | A | 
3 | C[S+]([O-])c1c(F)c(F)c(F)c(F)c1N1CCN(c2ncnc3c2CCN(c2cccc4cccc(Cl)c24)C3)CC1 (racemic) [Compound 43A, 7-(8-chloronaphthalen-1-yl)-4-(4-(2,3,4,5-tetrafluoro-6-(methylsulfinyl)phenyl)piperazin-1-yl)-5,6,7,8-tetrahydropyrido[3,4-d]pyrimidine] |  |  | a
4 | O=S(=O)(NC1CN(c2ncnc3c2CCN(c2cccc4ccccc24)C3)C1)c1c(F)c(F)c(F)c(F)c1F [Compound 20A, 2,3,4,5,6-pentafluoro-N-(1-(7-(naphthalen-1-yl)-5,6,7,8-tetrahydropyrido[3,4-d]pyrimidin-4-yl)azetidin-3-yl)benzenesulfonamide] | X | A | 
5 | COc1c(F)c(F)c(F)c(F)c1S(=O)(=O)Nc1nc(=O)n(-c2c(C)ccnc2C(C)C)c2nc(-c3c(O)cccc3F)c(F)cc12 (atropisomer, axis not shown) [Compound 9A, 2,3,4,5-tetrafluoro-N-(6-fluoro-7-(2-fluoro-6-hydroxyphenyl)-1-(2-isopropyl-4-methylpyridin-3-yl)-2-oxo-1,2-dihydropyrido[2,3-d]pyrimidin-4-yl)-6-methoxybenzenesulfonamide] | X |  | a
6 | O=S(=O)(c1c(O)c(F)c(F)c(F)c1F)N1CCN(c2ncnc3c2CCN(c2cccc4ccccc24)C3)CC1 [Compound 31A, 2,3,4,5-tetrafluoro-6-((4-(7-(naphthalen-1-yl)-5,6,7,8-tetrahydropyrido[3,4-d]pyrimidin-4-yl)piperazin-1-yl)sulfonyl)phenol] |  | A | a
7 | Cc1ccnc(C(C)C)c1-n1c(=O)nc(NS(=O)(=O)c2c(F)c(F)c(F)c(F)c2F)c2cc(F)c(Cl)nc21 [Compound 4A, N-(7-chloro-6-fluoro-1-(2-isopropyl-4-methylpyridin-3-yl)-2-oxo-1,2-dihydropyrido[2,3-d]pyrimidin-4-yl)-2,3,4,5,6-pentafluorobenzenesulfonamide] | X | A | a
8 | COc1c(F)c(F)c(F)c(F)c1S(=O)(=O)Nc1nc(=O)n(-c2c(C)ccnc2C(C)C)c2nc(Cl)c(F)cc12 [Compound 8A, N-(7-chloro-6-fluoro-1-(2-isopropyl-4-methylpyridin-3-yl)-2-oxo-1,2-dihydropyrido[2,3-d]pyrimidin-4-yl)-2,3,4,5-tetrafluoro-6-methoxybenzenesulfonamide] |  |  | a
9 | Cc1cccc(C)c1-c1cc2nccc(N3CCN(c4c(F)c(F)c(F)c(F)c4S(C)(=O)=O)C[C@@H]3C)c2cc1Cl [Compound 44A, (S)-6-chloro-7-(2,6-dimethylphenyl)-4-(2-methyl-4-(2,3,4,5-tetrafluoro-6-(methylsulfonyl)phenyl)piperazin-1-yl)quinoline] | X | A | 
10 | Cc1ccnc(C(C)C)c1-n1c(=O)nc(NS(=O)(=O)c2c(F)c(F)c(F)c(F)c2OCF)c2cc(F)c(-c3c(O)cccc3F)nc21 (atropisomer, axis not shown) [Compound 10A, 2,3,4,5-tetrafluoro-N-(6-fluoro-7-(2-fluoro-6-hydroxyphenyl)-1-(2-isopropyl-4-methylpyridin-3-yl)-2-oxo-1,2-dihydropyrido[2,3-d]pyrimidin-4-yl)-6-(fluoromethoxy)benzenesulfonamide] | X | A | 
11 | C[S+]([O-])c1c(F)c(F)c(F)c(F)c1N1CC(Nc2ncnc3cc(-c4ccccc4F)c(Cl)cc23)C1 (racemic) [Compound 48A, 6-chloro-7-(2-fluorophenyl)-N-(1-(2,3,4,5-tetrafluoro-6-(methylsulfinyl)phenyl)azetidin-3-yl)quinazolin-4-amine] | X | A | 
